Measured values taken from patent publication US20160084820A1, “METHODS OF TREATING OR PREVENTING PERIODONTITIS AND DISEASES ASSOCIATED WITH PERIODONTITIS” (priority 2010, published 2016).
Where two headings read alike, the source gives them in different places.

Experiments:
[1] = test system: intracellular cAMP; assay: cAMP enzyme immunoassay in P. gingivalis-stimulated macrophages; type: cell-based, mouse; conditions: C5aRA 1 μM; thapsigargin 1 μM; EGTA 5 mM; pertussis toxin 100 ng/ml; AMD3100 1 μg/ml; C5a 50 nM; 1 hour
[2] = test system: phagocytosed P. gingivalis in mouse peritoneal macrophages; type: cell-based, P. gingivalis ATCC 33277
Method: The viability of phagocytosed P. gingivalis was monitored by an antibiotic protection-based intracellular survival assay, as previously described (Wang et al., 2007, J. Immunol., 179:2349-58). Briefly, mouse peritoneal macrophages were allowed to phagocytose P. gingivalis (MOI=10:1; 5×10^6 bacteria and 5×10^5 cells) for […] at 37° C. This was followed by washing to remove extracellular nonadherent bacteria and 1-hour treatment with antibiotics (300 μg/ml gentamicin and 200 μg/ml metronidazole) to eliminate residual or extracellular adherent bacteria. The macrophages were subsequently cultured overnight (for a total of 24 hours) or for 48 hours Immediately after, the macrophages were washed and lysed in sterile distilled water, and viable counts of internalized P. gingivalis were determined by plating serial dilutions of macrophage lysates on blood agar plates subjected to anaerobic culture.
The viability of phagocytosed P. gingivalis was monitored by an antibiotic protection-based intracellular survival assay, as previously described (Wang et al., 2007, J. Immunol., 179:2349-58)). Briefly, mouse peritoneal macrophages were allowed to phagocytose P. gingivalis (at a MOI=10:1; 5×10^6 bacteria and 5×10^5 macrophages) for 30 min at 37° C. This was followed by washing to remove extracellular nonadherent bacteria and 1-hour treatment with antibiotics (300 μg/ml gentamicin and 200 μg/ml metronidazole) to eliminate residual or extracellular adherent bacteria. The macrophages were subsequently cultured overnight for a total of 24 hours Immediately after, the macrophages were washed and lysed in sterile distilled water and viable counts of internalized P. gingivalis were determined by plating serial dilutions of macrophage lysates on blood agar plates subjected to anaerobic culture.

[3] = test system: nitric oxide production; assay: NO2− (nitric oxide) production, Griess reaction-based assay, macrophages; type: cell-based, mouse; conditions: 24 hours; for reversal of the inhibitory C5a effect on nitric oxide: SQ22536 200 μM, H89 5 μM, chelerythrin 5 μM, PKI 6-22 1 μM, KT5823 1 μM, C5a 50 nM
[4] = test system: GSK3β Ser9-phosphorylation; assay: GSK3β Ser9 phosphorylation ELISA in macrophages; type: cell-based, mouse; conditions: PKI-6-22 1 μM; PD98059 25 μM
Method: PKA activity in lysates of activated cells was determined using the ProFluor™ PKA assay, according to the instructions of the manufacturer (Promega) (Hajishengallis et al., 2008, PNAS USA, 105:13532-7). Phosphorylation of GSK313 on Ser9 and total GSK3β were monitored using FACE™ GSK3β ELISA kits (Active Motif).

[5] = test system: iNOS expression; assay: iNOS expression, quantitative real-time PCR, macrophages; type: cell-based, mouse; conditions: SB216763 10 μM; 8-Br-cAMP 100 μM; 4 hours
Method: Gene expression in resting or activated mouse macrophages was quantified using quantitative real-time PCR. Briefly, RNA was extracted from cell lysates using the PerfectPure RNA cell kit (5 Prime, Fisher) and quantified by spectrometry at 260 and 280 nm. The RNA was reverse-transcribed using the High-Capacity cDNA Archive kit (Applied Biosystems) and quantitative real-time PCR with cDNA was performed using the ABI 7500 Fast System, according to the manufacturer's protocol (Applied Biosystems). TaqMan probes, sense primers, and antisense primers for expression of a house-keeping gene (GAPDH) or iNOS (or the genes shown in FIG. 7) were purchased from Applied Biosystems.

[6] = test system: IL-12p70 production; assay: IL-12p70 induction in IFN-gamma-primed macrophages, ELISA; type: cell-based, mouse; conditions: for reversal of C5a inhibition of P. gingivalis- or LPS-induced IL-12p70: C5a 50 nM
Method: (§1) Induction of nitric oxide production was assessed by measuring the amount of NO2− (stable metabolite of nitric oxide) in stimulated culture supernatants using a Griess reaction-based assay kit (R&D Systems), as previously performed (Hajishengallis et al., 2008, PNAS USA, 105:13532-7). Levels of cAMP in activated cell extracts were measured using a cAMP enzyme immunoassay kit (Cayman Chemical) (Liang et al., 2007, J. Immunol., 178:4811-9). C5a-induced intracellular calcium mobilization was monitored in cells (4×10^6) loaded with 1 μM Indo 1-AM in the presence of 1 μM pluronic acid, as previously described (Ali et al., 1993, J. Biol. Chem., 268:24247-54). Calcium traces were recorded in a Perkin-Elmer fluorescence spectrometer (Model 650-19) with an excitation wavelength of 355 nm and an emission wavelength of 405 nm. Induction of cytokine production in activated cell culture supernatants or in the peritoneal fluid of infected mice was determined by ELISA using kits from eBioscience or Cell Sciences. C5a levels were measured by sandwich ELISA, employing a pair of capture and biotinylated anti-05a mAbs (BD Pharmingen), according to the manufacturer's protocol.
Whether C5a inhibits P. gingivalis-induced IL-12p70 in peritoneal macrophages was investigated. Since macrophages are generally poor producers of IL-12p70 in vitro unless primed with IFN-gamma, macrophages used in these experiments were primed with IFN-gamma (0.1 μg/ml). […] The host TLR response against P. gingivalis is predominantly mediated by TLR2, both in vitro and in vivo. Therefore, whether C5a-mediated inhibition of P. gingivalis-induced IL-12p70 could involve a C5aR-TLR2 crosstalk additionally was examined.

[7] = test system: P. gingivalis; assay: Subcutaneous titanium-coil chamber model; type: in vivo, mouse; conditions: wild-type mice, 24 h post-infection
Method: Using the ‘chamber’ model, bacteria were injected into the lumen of a subcutaneously implanted titanium-coil chamber such that bacterial interactions with recruited inflammatory cells can be assessed accurately and quantitatively (Burns et al., 2006, J. Immunol., 177:8296-8300; Genco et al., 1991, Infect. Immun., 59:1255-63; and Graves et al., 2008, J. Clin. Periodontol., 35:89-105).

[8] = test system: P. gingivalis; assay: I.p. challenge model: P. gingivalis CFU, NO2− and bacteremia; type: in vivo, mouse
From the text: All animal procedures were approved by the Institutional Animal Care and Use Committee and performed in compliance with established federal and state policies.

[9] = test system: periodontal inflammatory responses; assay: Oral Pg infection, gingival IL-1beta and TNF-alpha mRNA after local C5aRA microinjection; type: in vivo, mouse
Method: Experiments were performed to determine an effective dose of C5aRA (PMX-53) that inhibits periodontal inflammatory responses. Briefly, 0.1, 1, or 10 μg C5aRA (or a PBS control) were administered through 1-μl microinjections (using a 28.5-gauge MicroFine needle) on the mesial of the first molar and in the papillae between first and second and third molars, on both sides of the maxilla. These treatments were repeated five times at two day-intervals Immediately following each treatment, the mice were infected orally with Pg in 2% carboxymethylcellulose vehicle (or vehicle only). One week after the last infection, the gingiva were dissected and analyzed by real-time quantitative PCR for mRNA expression of IL-1beta and TNF-alpha (selected as the most typically involved in destructive periodontal inflammation).
Because the antagonist was applied before each Pg infection treatment, this approach was considered preventive. In addition, however, it was determined if C5aRA acts in a therapeutic way (i.e., applied after infection and inflammation occurs). […] The mice were euthanized three days after the last treatment.

[10] = test system: P. gingivalis-induced cytokine production; conditions: C5aRA i.p. 25 pg/mouse; 5 h post-infection
Method: as §1
10-12 week-old mice were infected i.p. with P. gingivalis (5×10^7 CFU) and sampled by peritoneal lavage to measure production of cytokines and enumerate recovered CFU (following anaerobic growth on blood agar plates) (Hajishengallis et al., 2008, PNAS USA, 105:13532-7), as detailed in the respective figure description.
First, it was essential to determine whether C5aR signaling can regulate P. gingivalis-induced IL-12p70 production in vivo. For this purpose, wild-type mice were i.p.-administered C5aRA followed by i.p. challenge with P. gingivalis. Mice deficient in C5aR or TLR2 were similarly challenged with P. gingivalis, and all mice were sampled 5 h post-infection by peritoneal lavage.

[11] = pretreatment 1 μM C5aRA and/or 1 mM L-NAME or D-NAME, Pg with C5a 50 nM, 24 hours
[12] = C5aRA 1 μM, U0126 10 μM, wortmannin 100 nM
[13] = 1 pg applied twice weekly, four times, starting 2 weeks after five oral infections
[14] = 1 μg C5aRA microinjection before each of five Pg infections, one week after last infection

Molecule: c1cc(CN2CCCNCCNCCCNCC2)ccc1CN1CCCNCCNCCCNCC1 [AMD3100]
- effect on the synergistic C5a effect on P. gingivalis-induced cAMP [1]: modestly attenuated

Molecule: COC(=O)[C@H](N)CCCN=C(N)N[N+](=O)[O-] [D-NAME, N(G)-nitro-D-arginine methyl ester]
- effect on C5a-protected P. gingivalis intracellular viability [2]: had no effect

Molecule: O=C(O)CN(CCOCCOCCN(CC(=O)O)CC(=O)O)CC(=O)O [EGTA]
- effect on the synergistic C5a effect on P. gingivalis-induced cAMP [1]: relatively minimal and statistically insignificant effect

Molecule: O=S(=O)(NCCNC/C=C/c1ccc(Br)cc1)c1cccc2cnccc12 [H89]
- reversal of the inhibitory C5a effect on nitric oxide [3]: reversed

Molecule: COC(=O)[C@@H](N)CCCNC(=N)N[N+](=O)[O-] [L-NAME, N(G)-nitro-L-arginine methyl ester]
- effect on C5a-protected P. gingivalis intracellular viability [2, 11]: mimicked C5a and overrode the C5aRA effect

Molecule: COc1cccc(-c2cc(=O)c3ccccc3o2)c1N [PD98059]
- effect on synergistic C5a + P. gingivalis Ser9-phosphorylation of GSK3β [4]: not

Molecule: Cn1cc(C2=C(c3ccc(Cl)cc3Cl)C(=O)NC2=O)c2ccccc21 [SB216763]
- P. gingivalis-induced iNOS expression [5]: mimicked the inhibitory C5a effect
- P. gingivalis-induced nitric oxide production ([3]; SB216763 10 μM, 8-Br-cAMP 100 μM): mimicked the inhibitory C5a effect

Molecule: NC(N)=NCCC[C@H](NC(=O)COCC(c1ccccc1)c1ccccc1)C(=O)O [SB290157]
- reversal of the inhibitory effect of C5a^desArg on IL-12p70 [6]: did not influence

Molecule: Nc1ncnc2c1ncn2C1CCCO1 (stereo not shown) [SQ22536]
- reversal of the inhibitory C5a effect on nitric oxide [3]: reversed

Molecule: N#CC(=C(/N)Sc1ccccc1N)/C(C#N)=C(\N)Sc1ccccc1N [U0126]
- LPS-induced IL-12p70 without C5a [6]: appeared to up-regulate
- P. gingivalis-induced IL-12p70 without exogenous C5a [6, 12]: appeared to up-regulate
- reversal of C5a inhibition of P. gingivalis- or LPS-induced IL-12p70 [6, 12]: abrogated

Molecule: C/C=C(/C)C(=O)O[C@H]1C(C)=C2[C@H]([C@@H]1OC(=O)CCCCCCC)[C@@](C)(OC(C)=O)C[C@H](OC(=O)CCC)[C@@]1(O)[C@H]2OC(=O)[C@@]1(C)O [thapsigargin]
- effect on the synergistic C5a effect on P. gingivalis-induced cAMP [1]: abrogated

Molecule: PKI 6-22: peptide inhibitor of PKA
- effect on synergistic C5a + P. gingivalis Ser9-phosphorylation of GSK3β [4]: inhibited
- reversal of the inhibitory C5a effect on nitric oxide [3]: reversed

Molecule: acetylated phenylalanine-(ornithine-proline-(D)cyclohexylalanine-tryptophan-arginine) [C5aRA]
- Pg viable counts in chamber fluid [7]: reduced Pg viable counts
- effect on C5a-protected P. gingivalis intracellular viability [2, 11]: counteracted the protective effect of C5a
- KDP128-induced IL-12p70 in the absence of exogenously added C5a ([6]; C5aRA 1 μM): had no effect
- LPS-induced IL-12p70 without C5a [6, 12]: not seen
- P. gingivalis-induced IL-12p70 without exogenous C5a [6, 12]: significantly enhanced
- reversal of C5a inhibition of P. gingivalis- or LPS-induced IL-12p70 [6, 12]: completely reversed
- reversal of the inhibitory effect of C5a^desArg on IL-12p70 ([6]; C5a^desArg 50 nM, C5aRA 1 μM, A8^Δ71-73 1 μM, SB290157 5 μM): full reversal
- effect on the synergistic C5a effect on P. gingivalis-induced cAMP [1]: totally abrogated
- bacteremia (blood culture for P. gingivalis) ([8]; 24 hours post-infection): no bacteremia could be detected
- less P. gingivalis CFU in peritoneal lavage fluid compared to PBS control ([8]; C5aRA i.p. 25 μg/mouse, 24 h post-infection): about 2 log10 units
- reduction of P. gingivalis CFU in peritoneal lavage fluid vs control mice ([8]; C5aRA i.p. 1 mg/Kg body weight, 24 hours post-infection): > 95%
- nitric oxide production in peritoneal fluid relative to control mice ([8]; C5aRA i.p., 24 hours postinfection): elevated nitric oxide production
- induction of IL-1beta mRNA in gingiva, therapeutic [9, 13]: significantly reversed induction
- induction of TNF-alpha mRNA in gingiva, therapeutic [9, 13]: significantly reversed induction
- induction of IL-1beta mRNA in gingiva, preventive [9, 14]: highly effective in inhibiting induction
- induction of TNF-alpha mRNA in gingiva, preventive [9, 14]: highly effective in inhibiting induction
- efficacy of 1 μg dose compared with 10-fold higher dose ([9]; IL-1beta and TNF-alpha mRNA, preventive): not significantly different
- IFN-gamma level in peritoneal fluid vs PBS-treated wild-type controls [10]: significantly higher levels
- IL-12p70 level in peritoneal fluid vs PBS-treated wild-type controls [10]: significantly higher levels
- IL-23 level in peritoneal fluid vs PBS-treated wild-type controls [10]: significantly higher levels
- induction of IL-1beta production in peritoneal fluid [10]: inhibited
- induction of IL-6 production in peritoneal fluid [10]: inhibited
- induction of TNF-alpha production in peritoneal fluid [10]: inhibited

Molecule: pertussis toxin
- effect on the synergistic C5a effect on P. gingivalis-induced cAMP [1]: Significant reversal
